Results taken from patent publication US20080039422A1, “Vitamin B12-Containing Compositions and Methods of Use” (Transition Therapeutics Inc., priority 2004, published 2008).

Assays:
Type in all cases: physicochemical
[1] = Time course of CN-Cbl in solution (8 hours, 200 hours)
Method: To establish more precise time courses, ten samples were prepared containing various challenge amounts of CN-Cbl in solutions containing ethanol and propylene glycol. Five of the solutions contained 15% ethanol and 20% propylene glycol and five contained 20% ethanol and 40% propylene glycol. Within each set of five, they were challenged with: (1) 50 mg/ml CN-Cbl; (2) 75 mg/ml CN-Cbl; (3) 100 mg/ml CN-Cbl; (4) 150 mg/ml CN-Cbl; and (5) 200 mg/ml CN-Cbl. To generate the solutions, the methods described above were modified by heating the solutions for 30 consecutive minutes at 60° C., after which time there was no visible precipitate. Samples were also retained within the same tubes for the duration of the study, rather than transferring supernatant fractions to fresh tubes at each time point. The concentrations were recorded eleven times; seven times within the first eight hours following the initial combination and four times over the subsequent 192 hours. The concentrations were measured at 0.5 hours, 1.0 hour, 2.0 hours, 3.0 hours, 4.0 hours, 6.0 hours, 8.0 hours, 24.0 hours, 32.0 hours, 100 hours, and 200 hours. The concentration of CN-Cbl was measured and the percentage of CN-Cbl remaining in solution was calculated.

[2] = Effects of temperature of heating solution on long-term stability
Method: To study the effect of temperature, in some experiments, the solutions were heated to only 37° C. for 15 minutes (unless otherwise noted, the solutions were prepared as described above: by heating them to 60° C. for two hours, with additional mixing by vortexing carried out for 5-10 seconds every 5-10 minutes).
The effect of heating the solutions to different temperatures on long-term stability was tested. Solutions challenged with 50 or 75 mg/ml CN-Cbl containing 20% ethanol and 20-40% propylene glycol that were prepared at 60° C. and 37° C. were compared. The concentrations of CN-Cbl in solutions prepared at 60° C. were measured after three days, and the concentrations of CN-Cbl in solutions prepared at 37° C. were measured after two weeks. No significant difference was found in the concentrations of CN-Cbl in these solutions when the challenge amount was 50 mg/ml and only a slight difference when the challenge amount was 75 mg/ml. Solutions challenged with either 50 or 75 mg/ml CN-Cbl and containing ethanol and/or propylene glycol were heated to 37° C. (in which case, the concentration of CN-Cbl was measured after two weeks incubation at room temperature) or 60° C. (in which case, the concentration of CN-Cbl was measured after three days incubation at room temperature). Additional information regarding stability was obtained in the experiments described below.

[3] = Formulation of a buffer system; conditions: 0.025 M phosphate buffer system, pH 8
Method: It was also noted that changes in pH occurred during the solubility study. […] A suitable 0.025 M buffer system was developed containing 7.25 mg/ml disodium hydrogen phosphate dodecahydrate and 0.74 mg/ml sodium dihydrogen phosphate dihydrate.

Question: Which “CN-Cbl in solution over time” value ([1]; challenge 150 and 200 mg/ml, greater in 15% ethanol/20% PG than in 20% ethanol/40% PG) does the source give for cyanocobalamin [CN-Cbl] here?
Answer: The value was “some precipitation”.

Question: And the “CN-Cbl in solution over time” value ([1]; first eight hours (held true over 200 hours), challenge 50, 75 and 100 mg/ml, 15% ethanol/20% PG and 20% ethanol/40% PG)?
Answer: The value was “remained in solution”.

Question: What about the “Conc of CN-Cbl” value ([2]; heated to 37 degrees, After 2 weeks at Room Temperature, challenge 50 mg/mL, ethanol 20%, PG 20%) of the same substance?
Answer: The value was 47.08 mg/mL.

Question: And the “Conc of CN-Cbl” value ([2]; heated to 37 degrees, After 2 weeks at Room Temperature, challenge 50 mg/mL, ethanol 20%, PG 30%)?
Answer: The value was 49.78 mg/mL.

Question: And the “Conc of CN-Cbl” value ([2]; heated to 37 degrees, After 2 weeks at Room Temperature, challenge 50 mg/mL, ethanol 20%, PG 40%)?
Answer: The value was 49.87 mg/mL.

Question: What about the “Conc of CN-Cbl” value ([2]; heated to 37 degrees, After 2 weeks at Room Temperature, challenge 75 mg/mL, ethanol 20%, PG 20%) of the same substance?
Answer: The value was 38.39 mg/mL.

Question: What about the “Conc of CN-Cbl” value ([2]; heated to 37 degrees, After 2 weeks at Room Temperature, challenge 75 mg/mL, ethanol 20%, PG 30%) of the same substance?
Answer: The value was 59.62 mg/mL.

Question: What about the “Conc of CN-Cbl” value ([2]; heated to 37 degrees, After 2 weeks at Room Temperature, challenge 75 mg/mL, ethanol 20%, PG 40%) of the same substance?
Answer: Its value is 75.82 mg/mL.

Question: What about the “Conc of CN-Cbl” value ([2]; heated to 60 degrees, After 3 days at Room Temperature, challenge 50 mg/mL, ethanol 0%, PG 0%) of the same substance?
Answer: The value was 12.85 mg/mL.

Question: And the “Conc of CN-Cbl” value ([2]; heated to 60 degrees, After 3 days at Room Temperature, challenge 50 mg/mL, ethanol 20%, PG 0%)?
Answer: The value was 24.41 mg/mL.

Question: What about the “Conc of CN-Cbl” value ([2]; heated to 60 degrees, After 3 days at Room Temperature, challenge 50 mg/mL, ethanol 20%, PG 10%) of the same substance?
Answer: The value was 32.32 mg/mL.

Question: What about the “Conc of CN-Cbl” value ([2]; heated to 60 degrees, After 3 days at Room Temperature, challenge 50 mg/mL, ethanol 20%, PG 20%) of the same substance?
Answer: The value was 49.87 mg/mL.

Question: And the “Conc of CN-Cbl” value ([2]; heated to 60 degrees, After 3 days at Room Temperature, challenge 50 mg/mL, ethanol 20%, PG 30%)?
Answer: Its value is 48.33 mg/mL.

Question: And the “Conc of CN-Cbl” value ([2]; heated to 60 degrees, After 3 days at Room Temperature, challenge 50 mg/mL, ethanol 20%, PG 40%)?
Answer: Its value is 50.36 mg/mL.

Question: And the “Conc of CN-Cbl” value ([2]; heated to 60 degrees, After 3 days at Room Temperature, challenge 75 mg/mL, ethanol 0%, PG 0%)?
Answer: Its value is 14.01 mg/mL.

Question: And the “Conc of CN-Cbl” value ([2]; heated to 60 degrees, After 3 days at Room Temperature, challenge 75 mg/mL, ethanol 20%, PG 0%)?
Answer: The value was 24.41 mg/mL.

Question: What about the “Conc of CN-Cbl” value ([2]; heated to 60 degrees, After 3 days at Room Temperature, challenge 75 mg/mL, ethanol 20%, PG 10%) of the same substance?
Answer: The value was 30.10 mg/mL.

Question: And the “Conc of CN-Cbl” value ([2]; heated to 60 degrees, After 3 days at Room Temperature, challenge 75 mg/mL, ethanol 20%, PG 20%)?
Answer: Its value is 60.78 mg/mL.

Question: What about the “Conc of CN-Cbl” value ([2]; heated to 60 degrees, After 3 days at Room Temperature, challenge 75 mg/mL, ethanol 20%, PG 30%) of the same substance?
Answer: The value was 76.60 mg/mL.

Question: And the “Conc of CN-Cbl” value ([2]; heated to 60 degrees, After 3 days at Room Temperature, challenge 75 mg/mL, ethanol 20%, PG 40%)?
Answer: Its value is 74.28 mg/mL.

Question: What about the “reduction of pH of the buffered solution on addition of CN-Cbl” value [3] of the same substance?
Answer: Its value is 0.1 pH unit.
